Measured values as given in patent US5703106A, “Antagonists of endothelin receptors” (priority 1994, dated 1997).
pKi: −log10 of the molar value.

How the values were obtained:
[1] = biological target: T1, ETB receptor (Sus scrofa, UniProt P35463); experiment: Endothelin (ET) receptor binding assay, ETB receptor; conditions: [^125 I]ET-3 alone; porcine lung plasma membrane; 37° C., 1 hour, pH 7.4
T1 construct: The plasma membrane of porcine lung (2 mg of protein); from tissue; host or cells: porcine lung plasma membrane
T1 sequence (P35463 27-443): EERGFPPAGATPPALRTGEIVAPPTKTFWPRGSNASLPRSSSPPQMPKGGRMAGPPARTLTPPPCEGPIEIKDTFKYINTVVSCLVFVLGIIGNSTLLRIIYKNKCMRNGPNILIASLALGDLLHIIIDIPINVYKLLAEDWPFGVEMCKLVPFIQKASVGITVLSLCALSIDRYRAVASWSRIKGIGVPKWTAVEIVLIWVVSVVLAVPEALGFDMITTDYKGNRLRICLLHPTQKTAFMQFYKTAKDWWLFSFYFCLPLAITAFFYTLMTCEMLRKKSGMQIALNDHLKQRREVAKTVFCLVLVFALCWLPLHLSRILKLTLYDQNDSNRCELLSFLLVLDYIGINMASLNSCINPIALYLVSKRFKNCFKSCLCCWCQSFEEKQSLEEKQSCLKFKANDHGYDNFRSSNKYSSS
Protocol: Endothelin (ET) receptor binding assay
(§1) After the incubation, unbound [^125 I]ETs were separated by centrifugation at 20,000×g for 20 min at 4° C. followed by aspiration of the supernatant. The radioactivity in the membrane pellet is measured in Wallac-1470 Wizard autogamma counter (Pharmacia). Nonspecific binding is defined as membrane-associated radioactivity in the presence of saturating concentrations of ETs (100 nM). Nonspecific binding is subtracted from the total binding and the difference is defined as specific binding.

[2] = biological target: T1, ETB receptor; experiment: Scatchard analysis of radioligand binding, ETB receptor; conditions: porcine lung plasma membrane, [^125 I]ET-3 alone
Protocol: as §1, with “binding. Total binding is always less than 15% of the total radioactivity added. […] From the inhibition curves for the binding of [^125 I]ETs, the apparant binding affinity constant (Ki) of one of the test compounds is calculated as a parameter of the affinity for the ETA and ETB receptors, as shown in the following table.” for “binding.”

Row | Molecule | pKi [1] | Bmax [2] [fmol/mg protein]
1 | CCCCS(=O)(=O)NC(=O)[C@@H](NC(=O)C(Cc1ccc(-c2ccno2)cc1)N(C)C(=O)c1cc(C)cc(C)c1)[C@@H](C)CC (some centres unmarked) [10(a), N-butanesulfonyl-[N-(3,5-dimethylbenzoyl)-N-methyl-3-[4-(5-isoxazolyl)-phenyl]-(D,L)-alanyl]-(L)-isoleucineamide] | 8.46 | –
2 | CCCCS(=O)(=O)NC(=O)[C@@H](NC(=O)C(Cc1ccc(-c2ccno2)cc1)N(C)C(=O)c1cc(C)cc(C)c1)C(C)C (some centres unmarked) [Example 11, N-butanesulfonyl-[N-(3,5-dimethylbenzoyl)-N-methyl-3-[4-(5-isoxazolyl)-phenyl]-(D,L)-alanyl]-(L)-valineamide] | 8.92 | –
3 | CCCCS(=O)(=O)NC(=O)[C@H](Cc1c[nH]c2ccccc12)NC(=O)C(Cc1ccc(-n2cncn2)cc1)N(C)C(=O)c1cc(C)cc(C)c1 (some centres unmarked) [Example 12, N-butanesulfonyl-[N-(3,5-dimethylbenzoyl)-N-methyl-3-[4-(1,2,4-triazol-1-yl)-phenyl]-(D,L)-alanyl]-(L)-tryptophanamide] | 9.80 | –
4 | CCCCS(=O)(=O)NC(=O)[C@H](Cc1c[nH]c2ccccc12)NC(=O)C(Cc1ccc(-n2ccnn2)cc1)N(C)C(=O)c1cc(C)cc(C)c1 (some centres unmarked) [Example 13, N-butanesulfonyl-[N-(3,5-dimethylbenzoyl)-N-methyl-3-[4-(1,2,3-triazol-1-yl)-phenyl]-(D,L)-alanyl]-(L)-tryptophanamide] | 9.57 | –
5 | [^125 I]ET-3: radiolabelled endothelin-3 purchased from Amersham International; ETs are vasoactive peptides with 21 amino acid residues | – | 362

Second part, led by results:

Row | pKi [1] | Molecule | Bmax [2] [fmol/mg protein]
6 | 8.64 | Cc1cc(C)cc(C(=O)N(C)[C@H](Cc2ccc(O)cc2)C(=O)NC(Cc2c[nH]c3ccccc23)C(=O)NS(=O)(=O)c2ccccc2)c1 (some centres unmarked) [7(9), N-benzenesulfonyl-[N-(3,5-dimethylbenzoyl)-N-methyl-3-(4-hydroxyphenyl)-(D)-alanyl]-(D,L)-tryptophanamide] | –
7 | 9.05 | Cc1cc(C)cc(C(=O)N(C)[C@H](Cc2ccc(-c3ccccc3)cc2)C(=O)NC(Cc2c[nH]c3ccccc23)C(=O)NS(=O)(=O)c2ccccc2)c1 (some centres unmarked) [Example 1, N-benzenesulfonyl-[N-(3,5-dimethylbenzoyl)-N-methyl-3-(biphenyl-4-yl)-(D)-alanyl]-(D,L)-tryptophanamide] | –
8 | 9.52 | Cc1cc(C)cc(C(=O)N(C)[C@H](Cc2ccc(-c3ccsc3)cc2)C(=O)NC(Cc2c[nH]c3ccccc23)C(=O)NS(=O)(=O)c2cccs2)c1 (some centres unmarked) [Example 2, N-(2-thienyl)sulfonyl-[N-(3,5-dimethylbenzoyl)-N-methyl-(D)-3-[4-(3-thienyl)phenyl]-alanyl]-(D,L)-tryptophanamide] | –
9 | 9.47 | Cc1cc(C)cc(C(=O)N(C)[C@H](Cc2ccc(-c3ccno3)cc2)C(=O)NC(Cc2c[nH]c3ccccc23)C(=O)NS(=O)(=O)c2ccccc2)c1 (some centres unmarked) [Example 6] | –
10 | 9.62 | CCCCS(=O)(=O)NC(=O)[C@H](Cc1c[nH]c2ccccc12)NC(=O)C(Cc1ccc(-c2ccno2)cc1)N(C)C(=O)c1cc(C)cc(C)c1 (some centres unmarked) [Example 8, N-butanesulfonyl-[N-(3,5-dimethylbenzoyl)-N-methyl-3-[4-(5-isoxazolyl)-phenyl]-(D,L)-alanyl]-(L)-tryotophanamide] | –
11 | 9.64 | C=CCS(=O)(=O)NC(=O)[C@H](Cc1c[nH]c2ccccc12)NC(=O)C(Cc1ccc(-c2ccno2)cc1)N(C)C(=O)c1cc(C)cc(C)c1 (some centres unmarked) [Example 9, N-(2-propene)sulfonyl-[N-(3,5-dimethylbenzoyl)-N-methyl-3-[4-(5-isoxazolyl)-phenyl]-(D,L)-alanyl]-(L)-tryptophanamide] | –
